In brackets after ≈: the same amount, converted by molar mass. Like-named read-outs stand apart in the source and are kept apart here.
What was measured:
[1] = test system: Streptococcus faecalis 5 432; experiment: MIC, dilution in liquid medium; type: cell-based; conditions: read-out: M.I.C.
Experimental: (§1) The method used was a dilution of a liquid medium where a series of tubes received the same quantity of a sterile nutritive media and increasing doses of the test compounds were placed therein. Then each tube was seeded with a bacterial strain and was incubated for 24 to 48 hours at 37° C. in an oven. The increasing inhibition was determined by transillumination to determine the minimum inhibiting concentration (MIC in […]) and the results are reported in the following Tables.

[2] = test system: Proteus mirabilis (indol-) A 235; experiment: MIC, dilution in liquid medium; type: cell-based
Experimental: as §1

[3] = test system: Salmonella typhimurium 420; experiment: MIC, dilution in liquid medium; type: cell-based; conditions: Salmonella enterica, TYPHIMURIUM, read-out: M.I.C.
Experimental: as §1

[4] = test system: Escherichia Coli Resistant Gentamicine, Tobramycine R 55 123 D; experiment: MIC, dilution in liquid medium; type: cell-based; conditions: Escherichia coli
Experimental: as §1

[5] = test system: Escherichia Coli Exp. TO26 B6; experiment: MIC, dilution in liquid medium; type: cell-based; conditions: 48 H
Experimental: as §1

[6] = test system: Staphylococcus aureus ATCC 5 638 Pen-Sensible = UC 1061; experiment: MIC, dilution in liquid medium; type: cell-based
Experimental: as §1

[7] = test system: Klebsiella pneumoniae Exp. 52 145; experiment: MIC, dilution in liquid medium; type: cell-based; conditions: for MIC: Klebsiella pneumoniae
Experimental: as §1

[8] = test system: Bacillus subtilis ATCC 6 633; experiment: MIC, dilution in liquid medium; type: cell-based; conditions: 24 H
Experimental: as §1

[9] = test system: Klebsiella pneumoniae 2 536 Resistant Gentamicine; experiment: MIC, dilution in liquid medium; type: cell-based; conditions: Klebsiella pneumoniae, read-out: M.I.C.
Experimental: as §1

[10] = test system: Staphylococcus aureus exp. n° 54 146; experiment: MIC, dilution in liquid medium; type: cell-based; conditions: Staphylococcus aureus
Experimental: as §1

[11] = test system: Proteus vulgaris (indol+) A 232; experiment: MIC, dilution in liquid medium; type: cell-based; conditions: Proteus vulgaris, read-out: M.I.C.
Experimental: as §1

[12] = test system: Escherichia Coli Sensible Tetracycline ATCC 9 637 = 1020; experiment: MIC, dilution in liquid medium; type: cell-based; conditions: Escherichia coli, read-out: M.I.C.
Experimental: as §1

[13] = test system: Streptococcus faecalis 99 F 74; experiment: MIC, dilution in liquid medium; type: cell-based; conditions: Enterococcus faecalis, read-out: M.I.C.
Experimental: as §1

[14] = test system: Staphylococcus aureus UC 1 128 Pen-Resistant; experiment: MIC, dilution in liquid medium; type: cell-based; conditions: Staphylococcus aureus
Experimental: as §1

Providencia Du 48 = experiment: MIC, dilution in liquid medium; type: cell-based; conditions: for MIC: Providencia, read-out: M.I.C.
Experimental: as §1

[15] = test system: Streptococcus pyogenes A 561; experiment: MIC, dilution in liquid medium; type: cell-based; conditions: Streptococcus pyogenes
Experimental: as §1

[16] = test system: Pseudomonas 3 935 Exp. SG; experiment: MIC, dilution in liquid medium; type: cell-based; conditions: Pseudomonas, 3935EXP.SG, read-out: M.I.C.
Experimental: as §1

[17] = test system: Serratia Resistant Gentamicine 2 532; experiment: MIC, dilution in liquid medium; type: cell-based; conditions: read-out: M.I.C.
Experimental: as §1

[18] = test system: Escherichia Coli Resistant Tetracycline ATCC 11 303 = UC 1261; experiment: MIC, dilution in liquid medium; type: cell-based; conditions: Escherichia coli
Experimental: as §1

Proteus Mirabilis A 235 = experiment: Experimental infection of Proteus Mirabilis in mice; type: in vivo
Experimental: Groups of 10 mice with an average weight of 22 g received intraperitoneally 0.5 ml of a 24 hour old culture in oxoid bouillon of Proteus Mirabilis A 235 diluted 1/4 with distilled water. The mice then received subcutaneously the compound of Examples 11 or 15 one hour and 5 and 24 hours after the infection and the results are reported in the following Table.

## CCO/N=C(/C(=O)NC1C(=O)N2C(C(=O)O)=C(COC(C)=O)CSC12)c1csc(N)n1 (stereo not drawn) [Example 15, anti isomer of 3-acetoxymethyl-7-[2-(2-amino-4-thiazolyl)-2-ethoxyiminoacetamido]-ceph-3-eme-4-carboxylic acid]
[1]; Enterococcus faecalis, 5432, 24 h
  MIC: > 100 µg/mL
[1]; Enterococcus faecalis, 5432, 48 h
  MIC: > 100 µg/mL
[2]; 24 H
  M.I.C.: 5 µg/mL
[2]; Proteus mirabilis, 24 h, read-out: M.I.C.
  MIC: 10 µg/mL (≈ 21.3 µM)
[3]; 24 h
  MIC: 100 µg/mL (≈ 213 µM)
[3]; 48 h
  MIC: 100 µg/mL (≈ 213 µM)
[4]; 24 h
  MIC: 40 µg/mL (≈ 85.2 µM)
[4]; 24 h, read-out: M.I.C.
  MIC: 100 µg/mL (≈ 213 µM)
[4]; 48 h
  MIC: 40 µg/mL (≈ 85.2 µM)
[4]; 48 h, read-out: M.I.C.
  MIC: 100 µg/mL (≈ 213 µM)
[5]
  M.I.C.: 40 µg/mL
[6]; 24 h
  MIC: 20 µg/mL (≈ 42.6 µM)
[6]; 48 h
  MIC: 20 µg/mL (≈ 42.6 µM)
[7]; 24 H
  M.I.C.: 40 µg/mL
[7]; 48 H
  M.I.C.: 40 µg/mL
[7]; EXP.52145, 24 h, 24 H
  MIC: 20 µg/mL (≈ 42.6 µM)
[7]; EXP.52145, 48 h, 48 H
  MIC: 20 µg/mL (≈ 42.6 µM)
[8]
  M.I.C.: 20 µg/mL
[8]; Bacillus subtilis, ATCC6, 24 h, read-out: M.I.C.
  MIC: 10 µg/mL (≈ 21.3 µM)
[9]; 24 h
  MIC: > 100 µg/mL
[9]; 48 h
  MIC: > 100 µg/mL
[10]; 24 h
  MIC: 40 µg/mL (≈ 85.2 µM)
[10]; 48 h
  MIC: 40 µg/mL (≈ 85.2 µM)
[11]; 24 h
  MIC: > 100 µg/mL
[11]; 48 h
  MIC: > 100 µg/mL
[12]; ATCC9, 24 h, 24 H
  MIC: > 100 µg/mL
[12]; ATCC9, 48 h, 48 H
  MIC: > 100 µg/mL
[13]; 99F74, 24 h
  MIC: > 100 µg/mL
[13]; 99F74, 48 h
  MIC: > 100 µg/mL
[14]; UC1, 24 h, 24 H
  MIC: 40 µg/mL (≈ 85.2 µM)
[14]; UC1, 48 h, 48 H
  MIC: 40 µg/mL (≈ 85.2 µM)
Providencia Du 48; 24 H
  M.I.C.: > 100 µg/mL
Providencia Du 48; DU48, 24 h, 24 H
  MIC: 100 µg/mL (≈ 213 µM)
Providencia Du 48; DU48, 48 h, 48 H
  MIC: > 100 µg/mL
[15]; A561, 24 h
  MIC: 1 µg/mL (≈ 2.13 µM)
[15]; A561, 24 h, 24 H, read-out: M.I.C.
  MIC: 0.4 µg/mL (≈ 0.852 µM)
[15]; A561, 48 h
  MIC: 1 µg/mL (≈ 2.13 µM)
[15]; A561, 48 h, 48 H, read-out: M.I.C.
  MIC: 0.4 µg/mL (≈ 0.852 µM)
[16]; 24 h
  MIC: > 100 µg/mL
[16]; 48 h
  MIC: > 100 µg/mL
[17]; 24 h
  MIC: > 100 µg/mL
[17]; 48 h
  MIC: > 100 µg/mL
[18]; 24 h
  MIC: 20 µg/mL (≈ 42.6 µM)
[18]; 24 h, read-out: M.I.C.
  MIC: 10 µg/mL (≈ 21.3 µM)
[18]; 48 h
  MIC: 20 µg/mL (≈ 42.6 µM)
[18]; 48 h, read-out: M.I.C.
  MIC: 10 µg/mL (≈ 21.3 µM)
Proteus Mirabilis A 235; 0.5 mg subcutaneously
  MORTALITY AFTER 6H55: 1
  MORTALITY AFTER 21H30: 9
  Mice Alive on the 8th day: 0/10
Proteus Mirabilis A 235; 1 mg subcutaneously
  MORTALITY AFTER 21H30: 5
  MORTALITY AFTER 23H10: 1
  MORTALITY AFTER 23H30: 1
  MORTALITY AFTER 28H: 2
  MORTALITY AFTER 70H: 1
  Mice Alive on the 8th day: 0/10
